Earlier results on 1 compound are cited in publication PMC6381106 (Scientific Reports, 2019).

The subject of the data set is TLR4. The conditions noted are these: literature; ref [62]–[65]; cited from earlier work. The source says: Multiple anti-inflammatory immunomodulatory therapies have been developed to ameliorate proinflammation following bacterial infection. […] Therefore, novel therapeutic approaches that decrease inflammatory responses should be developed, and researchers should expand the focus beyond agents that only treat the initial infe ...

Regarding `CCOC(=O)C1=CCCC[C@H]1S(=O)(=O)Nc1ccc(F)cc1Cl` [TAK-242], the “outcome in clinical trials (TLR4 inhibitor; in words)” value is “unsuccessful in clinical trials”.
